Experimental data published in PMC5164911, “Comparative Analysis of the Interaction between Different Flavonoids and PDIA3” (Oxidative Medicine and Cellular Longevity, 2016).

What was measured:
[1] = molecular target: T1, PDIA3 (Homo sapiens, UniProt P30101); assay: Fluorescence quenching titration of PDIA3 intrinsic fluorescence; format: binding; settings: for Stern-Volmer constant (K SV): 0.5∗10^−6 M PDIA3 in reduced conditions, pH 7.4, 25°C, flavonoid 0 to 10∗10^−6 M, mean and standard deviation; for bimolecular quenching rate constant (K q): K SV = K q τ0 with τ0 of the order of 10^−8 s; for bimolecular quenching rate constant (K q) / Kd / binding constant (K b): reduced PDIA3, pH 7.4, 25°C; for Kd: K d = 1/K b, read-out: dissociation constant (K d); for binding constant (K b): equation of Bi et al., reiterative calculation of Sun et al.
T1 construct: made in house; host or cells: E. coli BL21 (vector pET21)
T1 sequence (P30101 25-505): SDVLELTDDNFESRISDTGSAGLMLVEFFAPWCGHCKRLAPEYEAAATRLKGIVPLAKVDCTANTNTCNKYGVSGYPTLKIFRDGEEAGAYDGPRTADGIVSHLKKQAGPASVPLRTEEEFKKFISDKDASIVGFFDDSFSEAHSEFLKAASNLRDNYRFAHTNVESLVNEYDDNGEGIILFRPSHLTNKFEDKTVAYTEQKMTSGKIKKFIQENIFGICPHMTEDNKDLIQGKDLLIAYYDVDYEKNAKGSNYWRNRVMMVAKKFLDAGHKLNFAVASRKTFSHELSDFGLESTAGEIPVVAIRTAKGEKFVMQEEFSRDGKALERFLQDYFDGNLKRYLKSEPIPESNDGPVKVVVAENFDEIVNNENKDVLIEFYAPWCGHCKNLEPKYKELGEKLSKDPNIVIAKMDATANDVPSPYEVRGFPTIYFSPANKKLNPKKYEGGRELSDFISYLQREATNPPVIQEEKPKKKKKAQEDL
Procedure: Quantitative analysis of the interaction between individual flavonoids and PDIA3 was performed by fluorimetric titration. […] Briefly, solution of PDIA3 (0.5 μM) or a and a′ domains (1 μM) in phosphate buffered saline (PBS) containing DTT 0.1 mM and EDTA 0.2 mM were titrated in quartz cuvette by stepwise additions, at 5 min time intervals, of individual flavonoid solution (1 mM in PBS/ethanol 50 : 50 v/v freshly prepared from a 20 mM stock solution in DMSO). […] To minimize the inner-filter effect we limited the highest concentration reached in the titration test up to 10 μM. All experiments were carried out at 25°C. Each spectrum was the mean of three repeated scans. Fluorescence spectra of appropriate blanks (flavonoids without proteins) were recorded under the same experimental conditions and subtracted from the corresponding flavonoid-protein system to correct the fluorescence background.
Quenching analysis was performed on PDIA3 (0.5 μM), in the reduced form, by adding stepwise increasing concentration of each molecule and recording the protein fluorescence spectra. For some flavonoids the analysis was extended to isolate a′ domain (1 μM), always in the reduced form. […] For each ligand molecule the Stern-Volmer quenching constant was obtained by linear regression of plots of F 0/F versus [L].
The Stern-Volmer quenching constant may be expressed as K SV = K q τ 0, where K q is the quencher rate coefficient and τ 0 is the average lifetime of the emissive excited state of the protein in the absence of the quencher.
The number of binding sites (n) and the binding constant (K b) were obtained by plotting log((F 0 − F)/F) versus log(1/([L t] − n(F 0 − F)[P t]/F 0)) using the reiterative calculation process described by Sun et al., assuming a similar affinity for each binding site.

[2] = molecular target: T1, PDIA3; assay: Differential scanning fluorimetry (thermal stability, SYPRO Orange); format: binding; settings: for Effect on PDIA3 stability (T m): flavonoid up to 50 μM, mainly at the highest concentration; for Increase in melting temperature (T m) of PDIA3: 50 μM flavonoid, reduced PDIA3 1 μM
Procedure: Protein stability was tested by the fluorescence-based thermal stability assay or differential scanning fluorimetry (DSF) developed by Pantoliano and coworkers. DSF records the fluorescence emission signal from the binding of a dye (SYPRO orange) to the exposed hydrophobic patches upon protein unfolding. Fluorescence measurements were performed using a CFX96 Connect RT-PCR instrument (BioRad). 18 μl aliquots of protein solution (1 μM), freshly diluted in Tris Buffered saline (50 mM TrisHCl, pH 8.0, 150 mM NaCl) containing 0.1 mM DTT, 0.2 mM EDTA, and 1 : 1000 dilution of SYPRO Orange (50 mM stock solution in DMSO), were distributed in a 96-well plate. Sample wells were addition of increasing concentration (up to 50 μM) of individual flavonoid by adding 2 μl of 10-fold concentrated stock solutions freshly prepared. As control, the protein solution was added with 2 μl of the dilution buffer. A melting point analysis was recorded increasing the temperature from 20 to 95°C with an increment of 0.5°C and reading, at each temperature, the fluorescence in fluorescence resonance energy transfer mode (FRET). Each measure was the average of three sample wells reading and each DSF experiment was repeated at least three times. To calculate T m values, DSF data from the melting curve were exported and fitted to Boltzman equation using GraphPad software. Effect of flavonoids was evaluated comparing the T m values in presence and absence of each molecule.

[3] = molecular target: T1, PDIA3; assay: Disulfide reductase activity with DiE-GSSG fluorogenic probe; format: biochemical; settings: DiE-GSSG substrate; for Inhibition of disulfide reductase (redox) activity: 20 μM flavonoid (Figure 7)
Procedure: Disulfide reductase activity of ERp57 was monitored by sensitive fluorescent assay using dieosin glutathione disulfide (DiE-GSSG) as fluorogenic probe. DiE-GSSG was synthesized by the reaction of eosin isothiocyanate with oxidized glutathione (GSSG) according to the method of Raturi and Mutus with some modifications. DiE-GSSG concentration was determined spectrophotometrically (ℇ 525 = 88,000 M^-1 cm^−1). Disulfide reductase activity was assayed in a reaction buffer containing 2 mM EDTA, 150 nM DiE-GSSG, and 5 μM DTT in PBS. A 20 μl aliquot of a stock solution of PDIA3 (1 μM) was added to the reaction mixture and DiE-GSSG reduction was monitored at 545 nm with excitation at 520 nm, at 25°C with continuous stirring. Reductase activity was calculated as the initial velocity in fluorescence increase. To test the effect of flavonoids on PDIA3 activity, the protein stock solution was previously incubated for 15 minutes at room temperature with different concentrations of each flavonoid and then a 20 μl aliquot subjected to assay in a reaction buffer containing the same concentration of the flavonoid.
Fluorescence quenching constant (K SV) values were given as means ± standard deviation and values of disulfide reductase activity were expressed in % of control sample ± relative standard deviation. All measurements were performed at least three times. Dunnett's test was used to compare the obtained reductase activity data with the activity of the untreated protein and a p value of <0.01 was considered as statistically significant.

Stern-Volmer constant (K SV) [1] [M⁻¹]	bimolecular quenching rate constant (K q) [1] [M⁻¹ s⁻¹]	Kd [1] [µM]	binding constant (K b) [1] [M⁻¹]	Effect on PDIA3 stability (T m) [2]	Inhibition of disulfide reductase (redox) activity [3]	Increase in melting temperature (T m) of PDIA3 [2]	Effect on disulfide reductase activity (in words) [3]	Compound
41110 ± 794	4.11e+12	21.9	45700					COc1c(-c2ccc(O)c(O)c2)oc2cc(O)cc(O)c2c1=O [3-O-Methyl-quercetin, 3-O-methyl quercetin]
43961 ± 673	4.4e+12	21.1	47300					O=c1cc(-c2ccc(O)cc2)oc2cc(O[C@@H]3O[C@H](CO)[C@@H](O)[C@H](O)[C@H]3O)cc(O)c12 [Apigenin-7-glucoside, apigenin-7-glucoside]
29761 ± 635	2.98e+12	34.2	29300	similar, but less pronounced, effect	approximately 20%			Oc1cc(O)c2cc(O)c(-c3ccc(O)c(O)c3)[o+]c2c1 [Cyanidin, cyanidin]
33164 ± 542	3.32e+12	27.1	36700			increased more than three degrees		O=c1c(O)c(-c2ccc(O)c(O)c2)oc2cc(O)ccc12 [Fisetin, fisetin]
22953 ± 435	2.3e+12	41	24400	similar, but less pronounced, effect				O=c1c(-c2ccc(O)cc2)coc2cc(O)cc(O)c12 [Genistein, genistein]
28423 ± 982	2.84e+12	38.5	26000			increased more than three degrees		O=c1c(O)c(-c2ccc(O)cc2)oc2cc(O)cc(O)c12 [Kaempferol, kaempferol]
31601 ± 484	3.16e+12	28.9	34600					O=c1cc(-c2ccc(O)c(O)c2)oc2cc(O[C@@H]3O[C@H](CO)[C@@H](O)[C@H](O)[C@H]3O)cc(O)c12 [Luteolin-7-glucoside, luteolin-7-glucoside]
24063 ± 265	2.41e+12	39	25600		approximately 20%	increased more than three degrees	some inhibitory effect	O=c1c(O)c(-c2ccc(O)cc2O)oc2cc(O)cc(O)c12 [Morin, morin]
16900 ± 352	1.69e+12	57.8	17300					O=C1C[C@@H](c2ccc(O)cc2)Oc2cc(O)cc(O)c21 [Naringenin, naringenin]
28462 ± 295	2.85e+12	33.2	30100	similar, but less pronounced, effect				COc1cc(O)c2c(=O)c(O)c(-c3ccc(O)c(O)c3)oc2c1 [Rhamnetin, rhamnetin]
22209 ± 484	2.22e+12	55.2						COc1ccc(-c2cc(=O)c3cc(OC)ccc3o2)c(OC)c1 [Trimethoxyflavone, 6,2′,4′-trimethoxyflavone]

Compound	Stern-Volmer constant (K SV) [1] [M⁻¹]	bimolecular quenching rate constant (K q) [1] [M⁻¹ s⁻¹]	Kd [1] [µM]	binding constant (K b) [1] [M⁻¹]	Effect on PDIA3 stability (T m) [2]	Inhibition of disulfide reductase (redox) activity [3]	Increase in melting temperature (T m) of PDIA3 [2]	Effect on disulfide reductase activity (in words) [3]
O=c1c(O[C@@H]2O[C@H](CO)[C@@H](O)[C@H](O)[C@H]2O)c(-c2ccc(O)c(O)c2)oc2cc(O)cc(O)c12 [Isoquercetin, isoquercetin]	25738 ± 367	2.57e+12	34.4	29100				
COc1cc(-c2oc3cc(O)cc(O)c3c(=O)c2O)ccc1O [Isorhamnetin, isorhamnetin]	36109 ± 1271	3.61e+12	30.8	32500	similar, but less pronounced, effect			
C[C@@H]1O[C@@H](Oc2c(-c3ccc(O)c(O)c3)oc3cc(O)cc(O)c3c2=O)[C@H](O)[C@H](O)[C@H]1O [Quercitrin, quercitrin]	29211 ± 483	2.92e+12	31	32300				
C[C@@H]1O[C@@H](OC[C@H]2O[C@@H](Oc3c(-c4ccc(O)c(O)c4)oc4cc(O)cc(O)c4c3=O)[C@H](O)[C@@H](O)[C@@H]2O)[C@H](O)[C@H](O)[C@H]1O [Rutin, rutin]	45197 ± 465	4.52e+12	22	45500				
